Source: PubChem BioAssay AID2060512 (Molecular Pharmacology Branch, DTP, NCI, 2025)
pIC50: −log10 of the molar value.

Test system: 186277-243-T-J2-PDC complex spheroid viability
Assay: Anticancer human tumor 186277-243-T-J2-PDC patient-derived colon adenocarcinoma cell line growth inhibition [GQUAD]
Conditions: for pIC50: curve of first compound; for viability, T/C: stronger effect = lower value
How it was run: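 Multi-cell-type spheroids of tumor cells with HUVEC and mesenchymal stem cells, treated with drug combinations. Concentrations descend in half-log steps from near clinical Cmax, or from 10 microM where Cmax is unknown; viability read-out.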

[1] = second compound 0.0316 µM, first compound 0.0316 µM
[2] = second compound 0.0316 µM, first compound 0.1 µM
[3] = second compound 0.0316 µM, first compound 0.316 µM
[4] = second compound 0.0316 µM, first compound 1 µM
[5] = second compound 0.0316 µM, first compound 3.16 µM
[6] = second compound 0.0316 µM, first compound 10 µM
[7] = second compound 0.1 µM, first compound 0.0316 µM
[8] = second compound 0.1 µM, first compound 0.1 µM
[9] = second compound 0.1 µM, first compound 0.316 µM
[10] = second compound 0.1 µM, first compound 1 µM
[11] = second compound 0.1 µM, first compound 3.16 µM
[12] = second compound 0.1 µM, first compound 10 µM
[13] = second compound 0.316 µM, first compound 0.0316 µM
[14] = second compound 0.316 µM, first compound 0.1 µM
[15] = second compound 0.316 µM, first compound 0.316 µM
[16] = second compound 0.316 µM, first compound 1 µM
[17] = second compound 0.316 µM, first compound 3.16 µM
[18] = second compound 0.316 µM, first compound 10 µM
[19] = second compound 1 µM, first compound 0.0316 µM
[20] = second compound 1 µM, first compound 0.1 µM
[21] = second compound 1 µM, first compound 0.316 µM
[22] = second compound 1 µM, first compound 1 µM
[23] = second compound 1 µM, first compound 3.16 µM
[24] = second compound 1 µM, first compound 10 µM
[25] = second compound 3.16 µM, first compound 0.0316 µM
[26] = second compound 3.16 µM, first compound 0.1 µM
[27] = second compound 3.16 µM, first compound 0.316 µM
[28] = second compound 3.16 µM, first compound 1 µM
[29] = second compound 3.16 µM, first compound 3.16 µM
[30] = second compound 3.16 µM, first compound 10 µM
[31] = second compound 10 µM, first compound 0.0316 µM
[32] = second compound 10 µM, first compound 0.1 µM
[33] = second compound 10 µM, first compound 0.316 µM
[34] = second compound 10 µM, first compound 1 µM
[35] = second compound 10 µM, first compound 3.16 µM
[36] = second compound 10 µM, first compound 10 µM
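Further: spheroids exposed to drugs for 7 days.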
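Wherever viability, T/C is given: 100% = DMSO vehicle control viability.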

Q: Which results are given for `CC(C)(O)C1CCC(Nc2ccc3ncc(-c4cccc(C(F)(F)F)c4)n3n2)CC1` (centres undefined) + Cc1[nH]c2ccc(F)cc2c1-c1nc2c3cccnc3c3ncccc3c2[nH]1?
A: pIC50 (second compound 0.0316 µM): 5.59; pIC50 (second compound 0.1 µM): 5.42; pIC50 (second compound 0.316 µM): 5.54; pIC50 (second compound 1 µM): 5.56; pIC50 (second compound 3.16 µM): 5.61; pIC50 (second compound 10 µM): 5.66; viability, T/C [1]: 105%; viability, T/C [2]: 87.1%; viability, T/C [3]: 86.5%; viability, T/C [4]: 80.9%; viability, T/C [5]: 42.2%; viability, T/C [6]: 29.2%; viability, T/C [7]: 100%; viability, T/C [8]: 103%; viability, T/C [9]: 78.8%; viability, T/C [10]: 83.3%; viability, T/C [11]: 49.8%; viability, T/C [12]: 32.1%; viability, T/C [13]: 90%; viability, T/C [14]: 110%; viability, T/C [15]: 97.3%; viability, T/C [16]: 91.8%; viability, T/C [17]: 46.1%; viability, T/C [18]: 32.6%; viability, T/C [19]: 98.8%; viability, T/C [20]: 97%; viability, T/C [21]: 90.5%; viability, T/C [22]: 107%; viability, T/C [23]: 41.7%; viability, T/C [24]: 45%; viability, T/C [25]: 95.6%; viability, T/C [26]: 115%; viability, T/C [27]: 107%; viability, T/C [28]: 90.9%; viability, T/C [29]: 37.9%; viability, T/C [30]: 38.6%; viability, T/C [31]: 91%; viability, T/C [32]: 111%; viability, T/C [33]: 113%; viability, T/C [34]: 87.4%; viability, T/C [35]: 29.4%; viability, T/C [36]: 35.3%

Q: With `O=C(NO)c1cnc(N2CCN(S(=O)(=O)c3ccc4ccccc4c3)CC2)nc1` + Cc1[nH]c2ccc(F)cc2c1-c1nc2c3cccnc3c3ncccc3c2[nH]1 as the compound, how does the pIC50 (second compound 0.0316 µM) read?
A: The pIC50 was 6.74.

Q: What about the pIC50 (second compound 0.1 µM) of the same compound?
A: The pIC50 was 6.73.

Q: And the pIC50 (second compound 0.316 µM)?
A: The pIC50 was 6.69.

Q: And the pIC50 (second compound 1 µM)?
A: The pIC50 was 6.72.

Q: And the pIC50 (second compound 3.16 µM)?
A: Its pIC50 is 6.69.

Q: And the pIC50 (second compound 10 µM)?
A: The pIC50 was 6.66.

Q: And the viability, T/C [1]?
A: Its viability, T/C is 100%.

Q: And the viability, T/C [2]?
A: The viability, T/C was 94%.

Q: What about the viability, T/C [3] of the same compound?
A: Its viability, T/C is 9.84%.

Q: And the viability, T/C [4]?
A: The viability, T/C was 0.27%.

Q: And the viability, T/C [5]?
A: The viability, T/C was 0.17%.

Q: And the viability, T/C [6]?
A: The viability, T/C was 0.17%.

Q: What about the viability, T/C [7] of the same compound?
A: The viability, T/C was 117%.

Q: And the viability, T/C [8]?
A: The viability, T/C was 95%.

Q: What about the viability, T/C [9] of the same compound?
A: The viability, T/C was 12.1%.

Q: And the viability, T/C [10]?
A: Its viability, T/C is 0.25%.

Q: What about the viability, T/C [11] of the same compound?
A: The viability, T/C was 0.14%.

Q: What about the viability, T/C [12] of the same compound?
A: The viability, T/C was 0.12%.

Q: What about the viability, T/C [13] of the same compound?
A: The viability, T/C was 103%.

Q: And the viability, T/C [14]?
A: Its viability, T/C is 115%.

Q: What about the viability, T/C [15] of the same compound?
A: The viability, T/C was 13.1%.

Q: What about the viability, T/C [16] of the same compound?
A: The viability, T/C was 0.3%.

Q: And the viability, T/C [17]?
A: Its viability, T/C is 0.12%.

Q: What about the viability, T/C [18] of the same compound?
A: The viability, T/C was 0.11%.

Q: And the viability, T/C [19]?
A: The viability, T/C was 91.5%.

Q: And the viability, T/C [20]?
A: The viability, T/C was 95.1%.

Q: And the viability, T/C [21]?
A: The viability, T/C was 15.3%.

Q: What about the viability, T/C [22] of the same compound?
A: Its viability, T/C is 0.34%.

Q: And the viability, T/C [23]?
A: Its viability, T/C is 0.11%.

Q: And the viability, T/C [24]?
A: The viability, T/C was 0.13%.

Q: And the viability, T/C [25]?
A: Its viability, T/C is 100%.

Q: What about the viability, T/C [26] of the same compound?
A: The viability, T/C was 98.2%.

Q: And the viability, T/C [27]?
A: The viability, T/C was 19.7%.

Q: What about the viability, T/C [28] of the same compound?
A: Its viability, T/C is 0.38%.

Q: And the viability, T/C [29]?
A: The viability, T/C was 0.14%.

Q: And the viability, T/C [30]?
A: Its viability, T/C is 0.16%.

Q: What about the viability, T/C [31] of the same compound?
A: Its viability, T/C is 100%.

Q: What about the viability, T/C [32] of the same compound?
A: The viability, T/C was 98.5%.

Q: And the viability, T/C [33]?
A: Its viability, T/C is 26.7%.

Q: What about the viability, T/C [34] of the same compound?
A: The viability, T/C was 0.52%.

Q: And the viability, T/C [35]?
A: The viability, T/C was 0.2%.

Q: What about the viability, T/C [36] of the same compound?
A: The viability, T/C was 0.22%.
